Laboratory results: paper PMC12040169 (PLOS Biology, 2025)

Assay: in vitro
Conditions: human, hela cells, % viability

Compound	viability at 28.5 h, 10 µM [%]
CN1CCN(S(=O)(=O)c2ccc(Br)cc2C(F)(F)F)CC1 [CBK062437]	90.7
CC(CCCC(C)(C)O)NS(=O)(=O)c1ccc(-c2ccon2)s1 (stereo not shown) [CBK062466]	93.8
Cc1c(S(=O)(=O)NC(C)CCCC(C)(C)O)sc2ccc(Cl)cc12 (stereo not shown) [CBK062467]	93.5
O=c1ccc2cc(S(=O)(=O)Nc3ccc4[nH]ccc4c3)ccc2o1 [CBK062503]	54.8
Cc1noc(C)c1S(=O)(=O)Nc1ccc2[nH]ncc2c1 [CBK062518]	87.8
O=S(=O)(Nc1ccc2[nH]ncc2c1)c1ccc(Br)cc1C(F)(F)F [CBK062529]	100
O=S(=O)(Nc1nnn[nH]1)c1csc2ccccc12 [CBK062590]	103
COc1ccc(CCNC(=O)[C@@H]2Cc3c([nH]c4ccccc34)[C@]3(CCN(Cc4ccccc4)C3)N2)cc1OC [CBK062620]	114
Cn1c(-c2nonc2N)nc2ccccc21 [CBK062642]	94.5
O=C(Nc1nonc1-c1nc2ccccc2n1CCOC(=O)c1ccc(F)cc1)c1ccc(F)cc1 [CBK062653]	102
Nc1nonc1-c1nc2ccccc2[nH]1 [CBK062657]	89.4
Cc1nc2n(CC#N)c3ccccc3n2n1 [CBK062670]	99.7
Cn1nccc1NS(=O)(=O)c1cc(C(=O)O)c(Cl)cc1F [CBK062712]	106
CS(=O)(=O)Nc1ccc2[nH]ccc2c1 [CBK062728]	91.2
CC(C)CN1CCN(S(=O)(=O)c2ccc(C(F)(F)F)cc2Cl)CC1 [CBK062740]	113
CCOc1ccc(S(=O)(=O)N2CCCN(Cc3cccc(C(F)(F)F)c3)CC2)c2cccnc12 [CBK062760]	84.3
CC(=O)c1ccc(CN2CCCN(S(=O)(=O)c3ccc(C(=O)c4ccccc4)cc3)CC2)cc1 [CBK062764]	109
COC(=O)c1cc(CN2CCCN(S(=O)(=O)c3ccc(C(=O)c4ccccc4)cc3)CC2)cn1C [CBK062770]	97.2
CCOc1ccc(S(=O)(=O)N2CCN(Cc3cc(F)c(F)c(F)c3)CC2)c2cccnc12 [CBK062795]	95.4
COC(=O)CCc1ccc(S(=O)(=O)N2CCN(Cc3csc(-c4ccccc4)n3)CC2)cc1 [CBK062812]	91.8

Compound	viability at 28.5 h, 10 µM [%]
CCC(C)(C)c1ccc(S(=O)(=O)N2CCN(Cc3ccc(C(C)=O)cc3)CC2)cc1 [CBK062826]	95.1
CCC(C)(C)c1ccc(S(=O)(=O)N2CCN(Cc3cc(C(=O)OC)n(C)c3)CC2)cc1 [CBK062831]	96.3
CCC(C)(C)c1ccc(S(=O)(=O)N2CCCN(Cc3cn(C)c4ccccc34)CC2)cc1 [CBK062871]	91.2
CCCC(=O)c1ccc(S(=O)(=O)N2CCCN(Cc3cccc4cccnc34)CC2)cc1 [CBK062909]	93
CCCC(=O)c1ccc(S(=O)(=O)N2CCCN(Cc3c[nH]nc3-c3ccc(F)cc3)CC2)cc1 [CBK062911]	121
CCCC(=O)c1ccc(S(=O)(=O)N2CCCN(Cc3c(-c4ccccc4)nc4sccn34)CC2)cc1 [CBK062912]	119
CCCC(=O)c1ccc(S(=O)(=O)N2CCCN(Cc3ccc(F)cc3Cl)CC2)cc1 [CBK062917]	116
CCCC(=O)c1ccc(S(=O)(=O)N2CCCN(Cc3ccc(OC)c(F)c3)CC2)cc1 [CBK062926]	93.7
Cc1c(F)cccc1CN1CCN(S(=O)(=O)c2ccc(C(=O)c3ccccc3)cc2)CC1 [CBK062929]	102
Cc1cc(CN2CCN(S(=O)(=O)c3ccc(C(=O)c4ccccc4)cc3)CC2)cc(C)c1O [CBK062933]	90.4
CCOc1ccc(S(=O)(=O)N2CCCN(CCCC#N)CC2)c2cccnc12 [CBK062935]	98.5
O=S(=O)(c1ccc(C(F)(F)F)cc1Cl)N1CCCN(Cc2ccnc3ccccc23)CC1 [CBK062942]	101
O=S(=O)(c1ccc(C(F)(F)F)cc1Cl)N1CCCN(Cc2ccc(F)cc2F)CC1 [CBK062946]	91.8
O=C(c1ccccc1)c1ccc(S(=O)(=O)N2CCN(Cc3ccc(O)c(F)c3)CC2)cc1 [CBK062948]	95.8
N#Cc1ccc(CN2CCCN(S(=O)(=O)c3ccc(C(=O)c4ccccc4)cc3)CC2)cc1 [CBK062962]	89.9
CCC(C)(C)c1ccc(S(=O)(=O)N2CCN(Cc3ccc(O)c(F)c3)CC2)cc1 [CBK062968]	91.7
COC(=O)CCc1ccc(S(=O)(=O)N2CCN(Cc3cccc4cccnc34)CC2)cc1 [CBK062969]	87.8
O=c1[nH]cc(CN2CCCN(S(=O)(=O)c3ccc(C(F)(F)F)cc3Cl)CC2)c(=O)[nH]1 [CBK062975]	106
COC(=O)CCc1ccc(S(=O)(=O)N2CCCN(Cc3cccc(Br)c3)CC2)cc1 [CBK062981]	102
COC(=O)CCc1ccc(S(=O)(=O)N2CCCN(Cc3c[nH]c4ccc(OC)cc34)CC2)cc1 [CBK062985]	98.1
